{"source": "patent US20210393724A1", "about": "“MEDICINE FOR TREATMENT OF PSORIASIS AND PRODUCTION METHOD THEREOF” (YEDITEPE UNIVERSITESI, priority 2018, published 2021)", "test_system": "IMQ-induced psoriasis inflammation", "assay": "IMQ-induced psoriasis mouse model: PASI scoring, ear thickness, spleen/body weight", "type": "in vivo, BALB/c mice", "conditions": "MTX 1 mg/kg orally per day", "description": "The cream named Aldara (Meda Pharma, 3M Health Care) containing 5% Imiquimib (IMQ) was administered once a day for 6 days on the shaved backs and right ears of 8-11 weeks old adult male BALB/c mice such that a total of 62.5 mg cream is applied per day per animal thereby psoriasis inflammation was produced in the animal model. Vaseline was applied to the shaved area of the animals in the control group. The positive control group received 1 mg/kg Mtx (Methotrexate) orally per day. The drug was administered orally at a dose of 5 mg/kg once a day during the experiment. Administration of the drug to the animals in the group where the semi-therapeutic effect of the drug was to be tested was initiated 1 day after the onset of induction of psoriasis with IMQ, and continued until the end of the experiment period. Body weight, and redness, flaking and thickening on the skin were daily measured and scored according to the Psoriasis Area Severity. Index (PASI) to monitor the general health status of the animals and the induction of psoriasis with IMQ. As required by the model, thickening of the right ear skin was also recorded on a regular basis since the day the experiments began. At the end of the application, animals were anesthetized by isoflurane and then euthanized by cervical dislocation. The size and weight of the spleen tissues were recorded."}
{"smiles": "CN(Cc1cnc2nc(N)nc(N)c2n1)c1ccc(C(=O)N[C@@H](CCC(=O)O)C(=O)O)cc1", "note": "[MTX, Methotrexate]", "values": [{"measurement": "plaque formation (scaling) PASI score of IMQ-administered region on the back", "setting": "as of the 4th day", "result": "decreased"}, {"measurement": "total PASI score", "setting": "as of the 4th day", "result": "Decrease"}, {"measurement": "thickness PASI score of IMQ-administered region on the back", "setting": "as of the 5th day", "result": "decreased"}]}
